# Experimental data from patent US20140107021A1 (priority 2010, published 2014).
# Where two headings read alike, the source gives them in different places. Square brackets hold non-standard residues; d marks the D form. Side chains are listed from the residue outwards. Ends that are not written are not given here. Peptide text beside a SMILES is read from it. * marks the point of attachment. Carboxymethyl = O=C(O)C*; CH2CH2COOH = O=C(O)CC*
# What was measured:
# glucagon receptor [1] = target: T1, glucagon receptor (Homo sapiens, UniProt P47871); test: glucagon receptor binding; parameters: expressed in transfected cells; host or cells: HEK293
# glucagon receptor [2] = target: T1, glucagon receptor; test: cell-based
# Text: HEK293 cells co-transfected with the receptor and luciferase gene linked to a cAMP responsive element were employed for the bioassay.
# All EC50s and IC50s are reported in the following examples in nM, unless indicated otherwise.
# solubility at pH 6-8 = format: physicochemical
# [3] = Table H, same values as receptor binding in Table I, read-out: IC50
# [4] = Table L, read-out: IC50(nM) (Receptor binding)
# [5] = Table L, inhibit 0.2 mM Glucagon
# [6] = read-out: IC50(nM) (cΛMP, inhibit 0.2 mM Glucagon), Table L, inhibit 0.2 mM Glucagon
# [7] = Table G, average ±STD of at least three experiments, same values as receptor binding in Table I, read-out: IC50
# [8] = Table E, read-out: Receptor Binding IC50
# T1 sequence (P47871 26-477): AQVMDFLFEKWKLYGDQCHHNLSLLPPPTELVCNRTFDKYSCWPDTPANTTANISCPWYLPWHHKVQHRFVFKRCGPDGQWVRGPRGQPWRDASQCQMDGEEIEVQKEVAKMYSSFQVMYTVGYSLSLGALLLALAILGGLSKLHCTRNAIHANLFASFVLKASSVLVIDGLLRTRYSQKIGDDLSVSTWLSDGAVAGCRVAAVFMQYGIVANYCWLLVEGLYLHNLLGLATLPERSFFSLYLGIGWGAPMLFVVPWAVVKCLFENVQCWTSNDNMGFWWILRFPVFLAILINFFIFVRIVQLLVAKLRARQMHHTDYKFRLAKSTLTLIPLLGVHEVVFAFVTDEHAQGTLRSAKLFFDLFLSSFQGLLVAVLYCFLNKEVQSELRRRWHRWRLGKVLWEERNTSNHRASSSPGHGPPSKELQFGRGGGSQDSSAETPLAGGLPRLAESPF
compound,measurement,setting,value
CSCC[C@H](NC(=O)[C@H](CC(C)C)NC(=O)[C@H](Cc1c[nH]c2ccccc12)NC(=O)[C@H](CCC(N)=O)NC(=O)[C@@H](NC(=O)[C@H](Cc1ccccc1)NC(=O)[C@H](CC(=O)O)NC(=O)[C@H](CCC(N)=O)NC(=O)[C@H](C)NC(=O)[C@H](CCCNC(=N)N)NC(=O)[C@H](CCCNC(=N)N)NC(=O)[C@H](CO)NC(=O)[C@H](CC(=O)O)NC(=O)[C@H](CC(C)C)NC(=O)[C@H](Cc1ccc(O)cc1)NC(=O)[C@H](CCCCN)NC(=O)[C@H](CO)NC(=O)[C@H](Cc1ccc(O)cc1)NC(=O)[C@H](CCS(=O)(=O)O)NC(=O)[C@H](CO)NC(=O)[C@@H](NC(=O)[C@H](Cc1ccccc1)NC(=O)[C@@H](NC(=O)CNC(=O)[C@H](CCC(N)=O)NC(=O)[C@@H](N)CO)[C@@H](C)O)[C@@H](C)O)C(C)C)C(=O)N[C@@H](CC(N)=O)C(=O)N[C@H](C(N)=O)[C@@H](C)O [[hCys^9(SO3H)]Glucagon(aa2-29)-NH2],IC50,glucagon receptor [1]; [3],13.2 ± 1 nM
"[K5(CH2CH2S-20 kDaPEG), E9]Glucagon(aa5-29)-NH2 (K([CH2CH2S-PEG 20 kDa])FTSEYSKYLDSRRAQDFVQWLMNT-NH2)",IC50,glucagon receptor [1]; [4],> 10000 nM
same,"IC50(nM) (cΛMP, inhibit 0.2 mM Glucagon)",glucagon receptor [2]; [5],no antagonism
"[C8(20 kDaPEG), E9]Glucagon(aa6-29)-NH2 (FTC(PEG 20 kDa)EYSKYLDSRRAQDFVQWLMNT-NH2)",IC50,glucagon receptor [1]; [4],> 1000 nM
same,"IC50(nM) (cΛMP, inhibit 0.2 mM Glucagon)",glucagon receptor [2]; [5],no antagonism
"CSCC[C@H](NC(=O)[C@H](CC(C)C)NC(=O)[C@H](Cc1c[nH]c2ccccc12)NC(=O)[C@H](CCC(N)=O)NC(=O)[C@@H](NC(=O)[C@H](Cc1ccccc1)NC(=O)[C@H](CC(=O)O)NC(=O)[C@H](CCC(N)=O)NC(=O)[C@H](C)NC(=O)[C@H](CCCNC(=N)N)NC(=O)[C@H](CCCNC(=N)N)NC(=O)[C@H](CO)NC(=O)[C@H](CC(=O)O)NC(=O)[C@H](CC(C)C)NC(=O)[C@H](Cc1ccc(O)cc1)NC(=O)[C@H](CCCCN)NC(=O)[C@H](CO)NC(=O)[C@H](Cc1ccc(O)cc1)NC(=O)[C@H](CC(=O)O)NC(=O)[C@H](CO)NC(=O)[C@@H](NC(=O)[C@@H](O)Cc1ccccc1)[C@@H](C)O)C(C)C)C(=O)N[C@@H](CC(=O)O)C(=O)N[C@H](C(N)=O)[C@@H](C)O [[PLA6, D9, D28]Glucagon(aa6-29)-NH2]","Solubility (%, pH 6-8)",solubility at pH 6-8,100%
"[E9, C24(20 kDaPEG)]Glucagon(aa6-29)-NH2 (FTSEYSKYLDSRRAQDFVC(PEG 20 kDa)WLMNT-NH2; not fully specified (residue 1))",IC50,glucagon receptor [1]; [4],> 1000 nM
same,"IC50(nM) (cΛMP, inhibit 0.2 mM Glucagon)",glucagon receptor [2]; [5],no antagonism
"[d-Cys5(20 kDaPEG, E9]Glucagon(aa5-29)-NH2 ([dC](PEG 20 kDa)FTSEYSKYLDSRRAQDFVQWLMNT-NH2)",IC50,glucagon receptor [1]; [4],> 10000 nM
same,IC50,glucagon receptor [2]; [6],14800 nM
"[C5(1.2 kDaPEG), E9]Glucagon(aa5-29)-NII2",IC50,glucagon receptor [1]; [4],1080 ± 268 nM
same,IC50,glucagon receptor [2]; [6],2280 nM
"H-LTFTSEYSKYLDSRRAQDFVQWLMNT-NH2 [[Leu^4, Glu^9]Glucagon(aa4-29)-NH2]",IC50,glucagon receptor [1]; [7],36.4 ± 8.69 nM
FTSEYSKYLDSRRAQDFVQWLMNT-NH2 [[Glu^9]Glucagon(aa6-29)-NH2],IC50,glucagon receptor [1]; [7],36.4 ± 5.23 nM
same,Kb,glucagon receptor [2],0.0692 µM
same,cAMP (I/A)50,glucagon receptor [2],486
same,cAMP pA2,glucagon receptor [2],7.16 ± 0.27
TSEYSKYLDSRRAQDFVQWLMNT-NH2 [[Glu^9]Glucagon(aa7-29)-NH2],IC50,glucagon receptor [1]; [7],> 10000 nM
CSCC[C@H](NC(=O)[C@H](CC(C)C)NC(=O)[C@H](Cc1c[nH]c2ccccc12)NC(=O)[C@H](CCC(N)=O)NC(=O)[C@@H](NC(=O)[C@H](Cc1ccccc1)NC(=O)[C@H](CC(=O)O)NC(=O)[C@H](CCC(N)=O)NC(=O)[C@H](C)NC(=O)[C@H](CCCNC(=N)N)NC(=O)[C@H](CCCNC(=N)N)NC(=O)[C@H](CO)NC(=O)[C@H](CC(=O)O)NC(=O)[C@H](CC(C)C)NC(=O)[C@H](Cc1ccc(O)cc1)NC(=O)[C@H](CCCCN)NC(=O)[C@H](CO)NC(=O)[C@H](Cc1ccc(O)cc1)NC(=O)[C@H](CCS(=O)(=O)O)NC(=O)[C@H](CO)NC(=O)[C@@H](NC(=O)[C@@H](N)Cc1ccccc1)[C@@H](C)O)C(C)C)C(=O)N[C@@H](CC(N)=O)C(=O)N[C@H](C(N)=O)[C@@H](C)O [[hCys^9(SO3H)]Glucagon(aa6-29)-NH2] (HELM PEPTIDE1{F.T.S.[O=C([C@H](CCS(=O)(=O)O)N[*:1])[*:2]].Y.S.K.Y.L.D.S.R.R.A.Q.D.F.V.Q.W.L.M.N.T.[am]}$$$$V2.0),IC50,glucagon receptor [1]; [3],59.1 ± 18.1 nM
same,Kb,glucagon receptor [2],0.0692 µM
same,cAMP pA2,glucagon receptor [2]; Table I,7.16 ± 0.51
same,IC50,"glucagon receptor [2]; cAMP IC50(nM), Table H",133 nM
"SQGTTSDYSKYLDSRRAQDFVQWLMNT-NH2 [[desHis^1, desPhe^6]Glucagon-NH2]",IC50,glucagon receptor [1]; [8],130 ± 44.9 nM
CSCC[C@H](NC(=O)[C@H](CC(C)C)NC(=O)[C@H](Cc1c[nH]c2ccccc12)NC(=O)[C@H](CCC(N)=O)NC(=O)[C@@H](NC(=O)[C@H](Cc1ccccc1)NC(=O)[C@H](CC(=O)O)NC(=O)[C@H](CCC(N)=O)NC(=O)[C@H](C)NC(=O)[C@H](CCCNC(=N)N)NC(=O)[C@H](CCCNC(=N)N)NC(=O)[C@H](CO)NC(=O)[C@H](CC(=O)O)NC(=O)[C@H](CC(C)C)NC(=O)[C@H](Cc1ccc(O)cc1)NC(=O)[C@H](CCCCN)NC(=O)[C@H](CO)NC(=O)[C@H](Cc1ccc(O)cc1)NC(=O)[C@H](CCCC(=O)O)NC(=O)[C@H](CO)NC(=O)[C@@H](NC(=O)[C@@H](N)Cc1ccccc1)[C@@H](C)O)C(C)C)C(=O)N[C@@H](CC(N)=O)C(=O)N[C@H](C(N)=O)[C@@H](C)O [(hGlu^9]Glucagon(aa6-29)-NH2] (HELM PEPTIDE1{F.T.S.[O=C(O)CCC[C@H](N[*:1])C(=O)[*:2]].Y.S.K.Y.L.D.S.R.R.A.Q.D.F.V.Q.W.L.M.N.T.[am]}$$$$V2.0; N-terminus assumed),IC50,glucagon receptor [1]; [7],163 ± 70.8 nM
same,Kb,glucagon receptor [2],0.537 µM
same,cAMP pA2,glucagon receptor [2]; Table I,6.27 ± 0.11
"CSCC[C@H](NC(=O)[C@H](CC(C)C)NC(=O)[C@H](Cc1c[nH]c2ccccc12)NC(=O)[C@H](CCC(N)=O)NC(=O)[C@@H](NC(=O)[C@H](Cc1ccccc1)NC(=O)[C@H](CC(=O)O)NC(=O)[C@H](CCC(N)=O)NC(=O)[C@H](C)NC(=O)[C@H](CCCNC(=N)N)NC(=O)[C@H](CCCNC(=N)N)NC(=O)[C@H](CO)NC(=O)[C@H](CC(=O)O)NC(=O)[C@H](CC(C)C)NC(=O)[C@H](Cc1ccc(O)cc1)NC(=O)[C@H](CCCCN)NC(=O)[C@H](CO)NC(=O)[C@H](Cc1ccc(O)cc1)NC(=O)[C@H](CSCC(=O)O)NC(=O)[C@H](CO)NC(=O)[C@@H](NC(=O)[C@@H](N)Cc1ccccc1)[C@@H](C)O)C(C)C)C(=O)N[C@@H](CC(N)=O)C(=O)N[C@H](C(N)=O)[C@@H](C)O [[(CSA-1)^9]Glucagon(aa6-29)-NII2, [C^9(SCH2COOH)]Glucagon(aa6-29)-NH2] (H-FTSC(Carboxymethyl)YSKYLDSRRAQDFVQWLMNT-NH2; N-terminus assumed)",IC50,glucagon receptor [1]; [7],107 ± 5.37 nM
same,Kb,glucagon receptor [2],0.209 µM
same,cAMP pA2,glucagon receptor [2]; Table I,6.68 ± 1.05
"CSCC[C@H](NC(=O)[C@H](CC(C)C)NC(=O)[C@H](Cc1c[nH]c2ccccc12)NC(=O)[C@H](CCC(N)=O)NC(=O)[C@@H](NC(=O)[C@H](Cc1ccccc1)NC(=O)[C@H](CC(=O)O)NC(=O)[C@H](CCC(N)=O)NC(=O)[C@H](C)NC(=O)[C@H](CCCNC(=N)N)NC(=O)[C@H](CCCNC(=N)N)NC(=O)[C@H](CO)NC(=O)[C@H](CC(=O)O)NC(=O)[C@H](CC(C)C)NC(=O)[C@H](Cc1ccc(O)cc1)NC(=O)[C@H](CCCCN)NC(=O)[C@H](CO)NC(=O)[C@H](Cc1ccc(O)cc1)NC(=O)[C@H](CSCCC(=O)O)NC(=O)[C@H](CO)NC(=O)[C@@H](NC(=O)[C@@H](N)Cc1ccccc1)[C@@H](C)O)C(C)C)C(=O)N[C@@H](CC(N)=O)C(=O)N[C@H](C(N)=O)[C@@H](C)O [[(CSA-2)^9]Glucagon(aa6-29)-NH2, [C^9(SCH2CH2COOH)]Glucagon(aa6-29)-NH2] (H-FTSC(CH2CH2COOH)YSKYLDSRRAQDFVQWLMNT-NH2; N-terminus assumed)",IC50,glucagon receptor [1]; [7],146 ± 36.9 nM
same,Kb,glucagon receptor [2],0.229 µM
same,cAMP pA2,glucagon receptor [2]; Table I,6.64 ± 0.29
"[E9, C11(20 kDaPEG)]Glucagon(aa6-29)-NH2 (FTSEYC(PEG 20 kDa)KYLDSRRAQDFVQWLMNT-NH2)",IC50,glucagon receptor [1]; [4],> 1000 nM
same,"IC50(nM) (cΛMP, inhibit 0.2 mM Glucagon)",glucagon receptor [2]; [5],no antagonism
"[Phe6, E9, C24(20 kDaPEG)]Glucagon aa6-29)-NH2 (FTSEYSKYLDSRRAQDFVC(PEG20kDa)WLMNT-NH2)",IC50,glucagon receptor [1]; [4],> 10000 nM
same,"IC50(nM) (cΛMP, inhibit 0.2 mM Glucagon)",glucagon receptor [2]; [5],no antagonism
"CC(C)C[C@H](NC(=O)[C@H](Cc1ccc(O)cc1)NC(=O)[C@H](CCCCN)NC(=O)[C@H](CO)NC(=O)[C@H](Cc1ccc(O)cc1)NC(=O)[C@H](CCS(=O)(=O)O)NC(=O)[C@H](CO)NC(=O)[C@@H](NC(=O)[C@H](Cc1ccccc1)NC(=O)[C@@H](NC(=O)CNC(=O)[C@H](CCC(N)=O)NC(=O)[C@@H](N)CO)[C@@H](C)O)[C@@H](C)O)C(=O)N[C@@H](CC(=O)O)C(=O)N[C@@H](CO)C(=O)N[C@@H](CCCNC(=N)N)C(=O)N[C@@H](CCCNC(=N)N)C(=O)N[C@@H](C)C(=O)N[C@@H](CCC(N)=O)C(=O)N[C@@H](CC(=O)O)C(=O)N[C@@H](Cc1ccccc1)C(=O)N[C@H](C(=O)N[C@@H](CCC(N)=O)C(=O)N[C@@H](Cc1ccccc1)C(=O)N[C@@H](CC(C)C)C(=O)N[C@@H](CC(C)C)C(=O)N[C@@H](CC(N)=O)C(=O)N[C@H](C(N)=O)[C@@H](C)O)C(C)C [[desIIis^1, hCys^9(SO3—), Phe^25, Leu^27]Glucagon-NH2] (HELM PEPTIDE1{S.Q.G.T.F.T.S.[O=C([C@H](CCS(=O)(=O)O)N[*:1])[*:2]].Y.S.K.Y.L.D.S.R.R.A.Q.D.F.V.Q.F.L.L.N.T.[am]}$$$$V2.0; N-terminus assumed)",IC50,glucagon receptor [1]; [8],13.9 ± 0.37 nM
